Reference: patent US20250197406A1, “INDAZOLES AS HEMATOPOIETIC PROGENITOR KINASE 1 (HPK1) INHIBITORS AND METHODS FOR USING SAME” (1ST Biotherapeutics, Inc., priority 2022, published 2025)

Target: recombinant human HPK1 (Homo sapiens (Human), UniProt Q92918)
Experiment: HPK1 kinase assay (Promega ADP-Glo kinase assay)
Type: biochemical
Conditions: In vitro activity against HPK1, 5 ng HPK1, MBP substrate, ATP 25 μM, 30° C. 40 minutes
In short: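 IC50 was derived from percent inhibition across a range of compound concentrations. Recombinant human HPK1 (5 ng) phosphorylated MBP for 40 min at 30 °C in Tris buffer pH 7.5 with 20 mM MgCl2, with ATP added as a 25 µM solution and 0.5% DMSO. ADP formed was read by ADP-Glo luminescence.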

Chain of recombinant human HPK1 (Q92918 whole entry): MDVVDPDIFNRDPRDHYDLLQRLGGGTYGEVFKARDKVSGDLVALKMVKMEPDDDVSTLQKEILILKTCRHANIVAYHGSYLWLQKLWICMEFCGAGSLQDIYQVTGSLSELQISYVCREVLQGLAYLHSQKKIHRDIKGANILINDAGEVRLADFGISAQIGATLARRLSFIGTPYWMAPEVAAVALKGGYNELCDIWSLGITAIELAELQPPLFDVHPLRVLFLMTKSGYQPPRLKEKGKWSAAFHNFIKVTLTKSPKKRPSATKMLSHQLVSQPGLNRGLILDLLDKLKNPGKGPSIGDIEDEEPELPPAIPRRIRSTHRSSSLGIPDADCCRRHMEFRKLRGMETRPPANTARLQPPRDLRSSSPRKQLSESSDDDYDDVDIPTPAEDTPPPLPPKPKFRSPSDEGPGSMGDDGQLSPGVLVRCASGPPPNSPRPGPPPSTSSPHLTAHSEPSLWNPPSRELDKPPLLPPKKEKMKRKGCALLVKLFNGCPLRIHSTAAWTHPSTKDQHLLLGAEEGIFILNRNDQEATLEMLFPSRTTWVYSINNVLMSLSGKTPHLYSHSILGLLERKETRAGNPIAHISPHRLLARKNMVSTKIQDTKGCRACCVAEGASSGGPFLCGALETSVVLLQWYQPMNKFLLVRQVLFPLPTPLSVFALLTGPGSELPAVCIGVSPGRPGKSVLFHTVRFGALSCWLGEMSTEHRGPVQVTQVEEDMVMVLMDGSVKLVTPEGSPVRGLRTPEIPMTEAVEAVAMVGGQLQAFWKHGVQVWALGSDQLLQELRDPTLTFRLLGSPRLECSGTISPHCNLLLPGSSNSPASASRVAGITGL

| IC50 | SMILES |
| --- | --- |
| < 100 nM | O=CNC(c1c(F)c(C(F)(F)F)c(-c2cn3cc(NC(=O)[C@@H]4C[C@@H]4F)nc3cn2)c2cn[nH]c12)C1CC1 (stereo partly drawn) [Example 115, (1S,2S)-N-(6-(7-(cyclopropyl(formamido)methyl)-6-fluoro-5-(trifluoromethyl)-1H-indazol-4-yl)imidazo[1,2-a]pyrazin-2-yl)-2-fluorocyclopropane-1-carboxamide] |
| < 100 nM | CC(C)Nc1c(F)c(Cl)c(-c2cn3cc(NC(=O)[C@@H]4C[C@@H]4CO)nc3cn2)c2cn[nH]c12 [Example 38, (IR,2S)-N-(6-(5-chloro-6-fluoro-7-(isopropylamino)-1H-indazol-4-yl)imidazo[1,2-a]pyrazin-2-yl)-2-(hydroxymethyl)cyclopropane-1-carboxamide] |
| < 100 nM | CC(C)Nc1c(F)c(Cl)c(-c2cn3cc(NC(=O)C4CCN(C)CC4)nc3cn2)c2cn[nH]c12 [Example 123, N-(6-(5-chloro-6-fluoro-7-(isopropylamino)-1H-indazol-4-yl)imidazo[1,2-a]pyrazin-2-yl)-1-methylpiperidine-4-carboxamide] |
| < 100 nM | CC(C)N(c1c(F)c(Cl)c(-c2cn3cc(NC(=O)[C@@H]4C[C@@H]4F)nc3cn2)c2cn[nH]c12)C1OC(C(=O)O)C(O)C(O)C1O (stereo partly drawn) [Example 14, 6-((5-chloro-6-fluoro-4-(2-((1S,2S)-2-fluorocyclopropane-1-carboxamido)imidazo[1,2-a]pyrazin-6-yl)-1H-indazol-7-yl)(isopropyl)amino)-3,4,5-trihydroxytetrahydro-2H-pyran-2-carboxylic acid] |
| < 100 nM | O=C(NC(c1c(F)c(C(F)F)c(-c2cn3cc(NC(=O)[C@@H]4C[C@@H]4F)nc3cn2)c2cn[nH]c12)C1CC1)C1CC1 (stereo partly drawn) [Example 77, (1S,2S)-N-(6-(7-(cyclopropanecarboxamido(cyclopropyl)methyl)-5-(difluoromethyl)-6-fluoro-1H-indazol-4-yl)imidazo[1,2-a]pyrazin-2-yl)-2-fluorocyclopropane-1-carboxamide] |
| 101 to 500 nM | CC(C)Nc1c(F)c(Cl)c(-c2cn3cc(NC4CCOC4)nc3cn2)c2cn[nH]c12 (stereo not shown) [Example 101, 6-(5-chloro-6-fluoro-7-(isopropylamino)-1H-indazol-4-yl)-N-(tetrahydrofuran-3-yl)imidazo[1,2-a]pyrazin-2-amine] |
| < 100 nM | CC(=O)NC(C)c1c(F)c(C)c(-c2cn3cc(NC(=O)[C@@H]4C[C@@H]4F)nc3cn2)c2cn[nH]c12 (stereo partly drawn) [Example 70, (1S,2S)-N-(6-(7-(1-acetamidoethyl)-6-fluoro-5-methyl-1H-indazol-4-yl)imidazo[1,2-a]pyrazin-2-yl)-2-fluorocyclopropane-1-carboxamide] |
| < 100 nM | CC(C)Nc1c(F)c(C(F)F)c(-c2cn3cc(NC(=O)C4CC4)nc3cn2)c2cn[nH]c12 [Example 156, N-(6-(5-(difluoromethyl)-6-fluoro-7-(isopropylamino)-1H-indazol-4-yl)imidazo[1,2-a]pyrazin-2-yl)cyclopropanecarboxamide] |
| < 100 nM | CC(C)Nc1c(F)c(Cl)c(-c2cn3cc(NC(=O)C(C)C)nc3cn2)c2cn[nH]c12 [Example 81, N-(6-(5-chloro-6-fluoro-7-(isopropylamino)-1H-indazol-4-yl)imidazo[1,2-a]pyrazin-2-yl)isobutyramide] |
| < 100 nM | Cc1c(F)c(NC(C)C)c2[nH]ncc2c1-c1cn2cc(NC(=O)Cc3cccnc3)nc2cn1 [Example 93, N-(6-(6-fluoro-7-(isopropylamino)-5-methyl-1H-indazol-4-yl)imidazo[1,2-a]pyrazin-2-yl)-2-(pyridin-3-yl)acetamide] |
| < 100 nM | C[C@@H](NC(=O)C(F)(F)F)c1c(F)c(Cl)c(-c2cn3cc(NC(=O)[C@@H]4C[C@@H]4F)nc3cn2)c2cn[nH]c12 [Example 137, (1S,2S)-N-(6-(5-chloro-6-fluoro-7-((R)-1-(2,2,2-trifluoroacetamido)ethyl)-1H-indazol-4-yl)imidazo[1,2-a]pyrazin-2-yl)-2-fluorocyclopropane-1-carboxamide] |
| < 100 nM | Cc1c(F)c(C(C)NC(=O)C(F)(F)F)c2[nH]ncc2c1-c1cn2cc(NC(=O)[C@@H]3C[C@@H]3F)nc2cn1 (stereo partly drawn) [Example 71, (1S,2S)-2-fluoro-N-(6-(6-fluoro-5-methyl-7-(1-(2,2,2-trifluoroacetamido)ethyl)-1H-indazol-4-yl)imidazo[1,2-a]pyrazin-2-yl)cyclopropane-1-carboxamide] |
| < 100 nM | CC(C)Nc1c(F)c(Cl)c(-c2cn3cc(NC(=O)[C@@H]4C[C@@H]4CCl)nc3cn2)c2cn[nH]c12 [Example 37, (1R,2S)-N-(6-(5-chloro-6-fluoro-7-(isopropylamino)-1H-indazol-4-yl)imidazo[1,2-a]pyrazin-2-yl)-2-(chloromethyl)cyclopropane-1-carboxamide] |
| < 100 nM | CC(=O)Nc1cn2cc(-c3c(C(F)(F)F)c(F)c(NC(C)C)c4[nH]ncc34)ncc2n1 [Example 83, N-(6-(6-fluoro-7-(isopropylamino)-5-(trifluoromethyl)-1H-indazol-4-yl)imidazo[1,2-a]pyrazin-2-yl)acetamide] |
| < 100 nM | Cc1c(F)c(C(NC(=O)C(F)(F)F)C2CC2)c2[nH]ncc2c1-c1cn2cc(NC(=O)[C@@H]3C[C@@H]3F)nc2cn1 (stereo partly drawn) [Example 107, (1S,2S)-N-(6-(7-(cyclopropyl(2,2,2-trifluoroacetamido)methyl)-6-fluoro-5-methyl-1H-indazol-4-yl)imidazo[1,2-a]pyrazin-2-yl)-2-fluorocyclopropane-1-carboxamide] |
| < 100 nM | COCC(=O)Nc1cn2cc(-c3c(Cl)c(F)c(NC(C)C)c4[nH]ncc34)ncc2n1 [Example 109, N-(6-(5-chloro-6-fluoro-7-(isopropylamino)-1H-indazol-4-yl)imidazo[1,2-a]pyrazin-2-yl)-2-methoxyacetamide] |
| < 100 nM | CC(C)Nc1c(F)c(Cl)c(-c2cn3cc(NC(=O)[C@@H]4C[C@@H]4C(F)F)nc3cn2)c2cn[nH]c12 [Example 88, (1R,2S)-N-(6-(5-chloro-6-fluoro-7-(isopropylamino)-1H-indazol-4-yl)imidazo[1,2-a]pyrazin-2-yl)-2-(difluoromethyl)cyclopropane-1-carboxamide] |
| < 100 nM | COc1c(F)c(NC(C)C)c2[nH]ncc2c1-c1cn2cc(NC(C)=O)nc2cn1 [Example 158, N-(6-(6-fluoro-7-(isopropylamino)-5-methoxy-1H-indazol-4-yl)imidazo[1,2-a]pyrazin-2-yl)acetamide] |
| < 100 nM | COC1CCCC1c1c(F)c(C)c(-c2cn3cc(NC(=O)[C@@H]4C[C@@H]4F)nc3cn2)c2cn[nH]c12 (stereo partly drawn) [Example 16, (1S,2S)-2-fluoro-N-(6-(6-fluoro-7-(2-methoxycyclopentyl)-5-methyl-1H-indazol-4-yl)imidazo[1,2-a]pyrazin-2-yl)cyclopropane-1-carboxamide] |
| < 100 nM | CC(C)Nc1c(F)c(Cl)c(-c2cn3cc(NC(=O)CN4CCOCC4)nc3cn2)c2cn[nH]c12 [Example 90, N-(6-(5-chloro-6-fluoro-7-(isopropylamino)-1H-indazol-4-yl)imidazo[1,2-a]pyrazin-2-yl)-2-morpholinoacetamide] |
| < 100 nM | Cc1c(F)c(NC(C)C)c2[nH]ncc2c1-c1cn2cc(NC(=O)[C@H]3C[C@H]3F)nc2cn1 [Example 33] |
| < 100 nM | CC(C)Nc1c(F)c(Cl)c(-c2cn3cc(NC(=O)C4CCC4)nc3cn2)c2cn[nH]c12 [Example 60, N-(6-(5-chloro-6-fluoro-7-(isopropylamino)-1H-indazol-4-yl)imidazo[1,2-a]pyrazin-2-yl)cyclobutanecarboxamide] |
